# Legend:
# [1] = test system: human cervical carcinoma (CaSki) xenograft; assay: CaSki high risk HPV16 human cervical carcinoma xenograft model; format: in vivo, nude mice; settings: for % TGI (Day 44): percentage tumor growth inhibition with respect to controls / Δ% on Day 44 / Δ% Body Weight: OC246/OC974 os 2 mg/kg/day; for % TGI (Day 44): percentage tumor growth inhibition with respect to controls: 4 × week; for % TGI (Day 44): percentage tumor growth inhibition with respect to controls / Tumor Volume Day 44 (mm^3 ± SD): 3 cycles, CDDP i.v. q7d × 3, 6 mg/kg; for Δ% on Day 44 / Δ% Body Weight: CDDP i.v. 6 mg/kg; for Δ% on Day 44: control 100; for Tumor Volume Day 44 (mm^3 ± SD): OC246/OC974 os daily 4 × week, 2 mg/kg/day, control 1099 ± 503; for Δ% Body Weight: between first day of treatment (day 20) and Day 44, control +4.9
# Experimental: The aim of this study was to assess the in vivo efficacy of OC246 and OC974 on a human cervical carcinoma (CaSki) xenograft model in nude mice. OC246 and OC974 were administered oral once daily for four times with three days off, for three cycles at 2 mg/kg/dose. Cisplatin (CDDP) was used as a reference compound with three weekly intravenous (q7dx3) administrations of 6 mg/kg.
# [2] = target: T1, HPV16 E7 protein (Human papillomavirus type 16, UniProt P03129); format: cell-based; settings: CaSki cells; for % Dad: adjusted degradation, CHX steady state set to 100% degradation
# T1 construct: endogenous in cells; host or cells: CaSki cells (HPV16-positive cervical carcinoma)
# T1 sequence (P03129 whole entry): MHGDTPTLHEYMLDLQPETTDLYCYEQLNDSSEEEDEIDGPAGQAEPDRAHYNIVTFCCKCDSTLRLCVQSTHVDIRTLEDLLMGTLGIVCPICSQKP
# Experimental: For intracellular antibody labeling, 0.5×10^6 cells are washed once with 1 ml ice-cold PBS. Cells are centrifuged at 350×g for 5 minutes at 4° C. and then fixed in 1% paraformaldehyde (1 ml/10^6 cells) for 20 minutes at 4° C. Cells are washed with 1 ml ice-cold PBS and centrifuged at 350×g for 5 minutes at 4° C. To permeabilize cells, 100% ice-cold methanol (1 ml/10^6 cells) is added to the cells and incubated for 20 minutes at 4° C. followed by centrifugation at 350×g for 5 minutes at 4° C. Cells are washed with 1 ml ice-cold PBS, centrifuged at 350×g for 5 minutes at 4° C. and resuspended in 0.1% saponin+2% FBS in PBS (ice-cold). Cells are left for 20-30 minutes at room temperature to reduce the background signal and then centrifuged at 350×g for 5 minutes at 4° C. The primary antibody (mAb_HPV16E7-1 (VS13004); concentration 1 μg/μl) is diluted in 0.1% saponin+2% FBS (dilution 0.25 μg/50 μl of incubation buffer per 1×10^6 cells (5 ng/μl)). Cells are incubated with primary antibody for 30 minutes at room temperature, washed with 0.1% saponin+2% FBS and centrifuged at 350×g for 5 minutes at 4° C. The secondary antibody (FITC conjugated goat anti-mouse IgG1-IgM, BD, cat. #555988) is diluted in 0.1% saponin+2% FBS (dilution 1:50). Cells are incubated with secondary antibody for 30 minutes at room temperature, washed once with 0.1% saponin+2% FBS, once with PBS and centrifuged at 350×g for 5 minutes at 4° C.
# Cells are resuspended in 700 μl PBS prior to CF analysis with a Beckman Coulter FC 500 MPL, (excitation laser 488 nm). Data analysis is done using the Beckman Coulter software packages MXP for acquisition and CXP for data analysis which includes MFI calculation. Detection of HPV-E7 protein expression is based on morphology back-gating of FL1 histogram (logarithmic scale) with gating for dot plot FS (Forward Scatter) log/SS (Sideward Scatter) log and gating for histograms SS log.
# In order to define the level of E7 protein expression and to study the extent of E7 protein steady state level reduction in E7 expressing cells in the presence of various compounds, FC analysis is implemented using the intracellular antibody labeling procedure for monoclonal antibodies to HPV E7. E7 signal intensities are analyzed from the obtained FL1 histograms at logarithmic scale. The FL1 single histogram graph represents the variation in the mean fluorescence intensity (MFI) channel for cells treated with selected compounds compared to cells not incubated with primary antibodies but incubated with secondary, which allows to test for auto-fluorescence, and non-compound treated cells as controls. Non-primary antibody-stained cells are used to set the acquisition parameters to zero. Decrease of the mean fluorescence intensity channel corresponds to a decrease in the expression of HPV16 E7 protein. Degradation of E7 in cells is calculated as percent (%) reduction in MFI(x-Me) using the following formulas: % Drel=(T−C)/T*100; i) relative degradation: % Dad=(T−C)/(T−CHX)*100; ii) adjusted degradation: • Drel=relative degradation, • Dad=adjusted degradation assuming CHX % Drel=100; • T=MFI of non-treated cells; • C=MFI of compound treated cells; • CH=MFI of cycloheximide (CHX) treated cells;
# For comparison within one experiment i) the % relative degradation (Drel) is sufficient, whereas for comparison between two or more experiments ii) the adjusted degradation (Dad) is used and CHX steady state is set to a 100% degradation parameter.
# 1×10^6 freshly seeded CaSki cells (ATCC CRL-7915), are grown in 10 cm diameter cell culture dishes in RPMI1640, 10% FCS medium at 37° C. 5% CO2 overnight and then incubated in the presence of 10 μM Cycloheximide (CHX) 10 μM OC246 or with vehicle alone for four hours at 37° C. 5% CO2. Following this E7 protein is assessed by cytofluorimetric analysis using intracellular HPV16 E7 antibody labeling. […]
# [3] = test system: cell signaling molecules (4E-BP1, p70 S6 kinase, Akt, PTPN14, p53, PD-L1); assay: Western blot of cell signaling molecules in CaSki cells
# [4] = test system: patient derived SARS-2 Coronavirus (COVID19); assay: Inhibition of Sars-CoV2 replication by RNA qPCR analysis in Vero E6 cells; format: cell-based, SARS-CoV-2; settings: 7.5 μM, supernatants 3 days after infection, n3
# Experimental: Vero E6 cells were pre-incubated with the compounds at a concentration of 7.5 μM. The cells were infected with a patient derived SARS-2 Coronavirus (COVID19). Cellular supernatants were collected 3 days after infection and centrifuged at 2000 rpm for 5 min to remove detached cells. Viral RNAs were extracted using a MagNA Pure 24 system (Roche, Germany). SARS-CoV-2 RNA genomes were quantified with the TIB MOLBIOL LightMix Assay SARS-CoV-2 RdRP RTqPCR assay kit with RNA Process Control PCR Kit (Roche). The PCR reaction setup was performed using a BRAND LHS laboratory robot to ensure quality. The amplification was performed with a LightCycler 480 II (Roche). Method used in FIG. 10.
# SARV-CoV-2 antiviral activity by of VSP034 and VSP035 (n3; number of repeat of the assay at each condition). The results are shown in for DMSO (1), 7.5 μM VSP034 (2) and 7.5 μM VSP035 (3), y axis logarithmic scale. […] (FIG. 9)
SMILES,% TGI (Day 44): percentage tumor growth inhibition with respect to controls [1],Δ% on Day 44 [1],Tumor Volume Day 44 (mm^3 ± SD) [1],Δ% Body Weight [1],% Dad [2],"signaling of phosphor-Akt S473 ([3]; 10 μM, 4 hours, CaSki and U2OS cells)","% Drel (relative degradation) ([2]; 10 μM, four hours)","% Dab (adjusted degradation) ([2]; 10 μM, four hours, CHX set to 100)","MFI (mean fluorescence intensity) of E7 signal ([2]; 10 μM, four hours, vehicle T 8.06)",reduction of virus load as determined by the PCR assay [4],"PDL-1 regulation ([3]; CaSki, 4 and 8 hours, dose dependent)","p(S473)Akt, Sting and Irf-3 levels ([3]; CaSki, 10 μm VSP035 time course)","Ptpn14 and p53 levels ([3]; CaSki, 10 μm, 24 h time point)","Phosphorylation of 4E-BP1 on Ser65 and the p70S6 kinase on Thr389 ([3]; CaSki, 6 h, order 10 μM VSP035, Torin 1, Torin 2, rapamycin, 5 μM VSP035, CGP 57380)","4E-BP1 phosphorylation state ([3]; CaSki, 6 h treatment)"
"CN1CCC(CN2C(=O)c3ccccc3[C@@H](C(=O)Nc3cccc(N4CCN(C)CC4)c3)[C@@H]2c2ccc(C(F)(F)F)cc2)CC1 (racemic) [OC974, (3R,4R)- and (3S,4S)-N-[3-(4-methylpiperazin-1-yl)phenyl]-2-[(1-methylpiperidin-4-yl)methyl]-1-oxo-3-[4-(trifluoromethyl)phenyl]-3,4-dihydroisoquinoline-4-carboxamide]",63.9%,23%,307 ± 171 mm^3,+1.1%,68%,,,,,,,,,,
"Cc1ccc(CN2C(=O)c3ccccc3[C@H](C(=O)Nc3cccc(N4CCN(C)CC4)c3)[C@@H]2c2ccc(C(F)(F)F)cc2)cc1 [OC246, N-[3-(4-methylpiperazin-1-yl)phenyl]-2-[(4-methylphenyl)methyl]-1-oxo-3-[4-(trifluoromethyl)phenyl]-1,2,3,4-tetrahydroisoquinoline-4-carboxamide]",66.6%,27%,371 ± 153 mm^3,+5.5%,56%,does not inhibit,43.79%,55.59%,4.53,,,,,,
"CN1CCC(CN2C(=O)c3ccccc3[C@H](C(=O)Nc3cccc(N4CCN(C)CC4)c3)[C@H]2c2ccc(C(F)(F)F)cc2)CC1 [VSP035, (3S,4S)-N-[3-(4-methylpiperazin-1-yl)phenyl]-2-[(1-methylpiperidin-4-yl)methyl]-1-oxo-3-[4-(trifluoromethyl)phenyl]-1,2,3,4-tetrahydroisoquinoline-4-carboxamide]",,,,,,,,,,one order of magnitude,valid pdl-1 destabilizer,do not appear to be influenced,increase in Ptpn14 and p53,inhibited or strongly reduced,dose dependent hypophosphorylation of 4E-BP1

# Source: patent US12630523B2, “Isoquinoline derivatives for use as antiviral and antitumour agents” (priority 2021, dated 2026)
